Test results taken from patent US20250304952A1, “DNA ELEMENT RESPONSIVE TO EXTRACHROMOSOMAL DNA IN CANCER CELLS” (The Board of Trustees of the Leland Stanford Junior …, priority 2021, published 2025).

Experiments:
Assay type in all cases: cell-based, human
[1] = tested on: MYC transcription from ecDNA in COLO320-DM; assay: MYC transcription probability by joint nascent RNA and DNA FISH; settings: 500 nM JQ1, 6 hours, RNA normalized to ecDNA copy number
Source text: To quantify the MYC gene expression on the ecDNAs, we ordered the RNA FISH probes conjugated with a Quasar 570 dye (Biosearch Technologies) targeting to the intronic region of human (hg19) MYC gene for detection of nascent RNA transcript. We also ordered the RNA FISH probes conjugated with a Quasar 670 dye targeting to the exonic region of human MYC gene for detection of both mature and nascent RNA transcripts. […]
To characterize the ecDNA hub shape and size, we employed the synthetic model—Surfaces object from Imaris (version 9.1, Bitplane) and applied a Gaussian filter (σ=1 voxel in xy) and background subtraction for optimal segmentation and quantification of ecDNA hubs. ecDNA hubs containing connected voxels were sorted by size and singleton ecDNAs were separated from ecDNA hubs (minimal two ecDNA molecules).
To measure the number of ecDNA or nascent transcripts, we localized the voxels corresponding to the local maximum of identified DNA or RNA FISH signal using the Imaris spots function module. We validated the accuracy of interphase ecDNA counting by comparing to quantification of ecDNA number by metaphase FISH as well as copy number estimated by whole genome sequencing FIG. 5f). […]

[2] = tested on: covalently-linked MYC copies in COLO320-HSR; assay: Interphase DNA FISH of chromosomal MYC amplicon (HSR), autocorrelation g(r); settings: 500 nM, 6 hours
[3] = tested on: ecDNA hubs in TetO-GFP COLO320-DM cells; assay: Live cell imaging of TetR-eGFP-labeled ecDNAs through cell division; settings: 500 nM JQ1
Source text: sgRNA was designed by E-CRISP (http://www.e-crisp.org/E-CRISP/designcrispr.html) targeting ˜0.5 kb upstream of MYC transcription start site or N-terminal BRD4 gene. The sgRNA was cloned into the modified pX330 (Addgene, Cat #42230) construct co-expressing wild type SpCas9 and a PGK-Venus cassette. ˜500 bp homology arms were PCR amplified from COLO320-DM cells and cloned into a pUC19 donor vector together with ˜96 copies of TetO array and a blasticidin selection cassette
(Addgene #118713) for ecDNA-TetO array or with HaloTag (Addgene #139747) for BRD4. 2 μg of the donor vector and 1 μg of the sgRNA vector were transfected into COLO320-DM cells by lipofectamine 3000. For ecDNA-TetO array, blasticidin (10 ug/ml) selection was applied after 7 days. For BRD4-HaloTag knock-in, 100 nM HaloTag ligand JF549 (a kind gift from Luke Lavis's lab at Janelia Research Campus) was applied to the cells followed by washing and FACS sorting. Individual clones were selected, genotyped by PCR and verified by Sanger sequencing before being tested for imaging. […]
To monitor ecDNA dynamics within the nucleus, the COLO320-DM TetO-eGFP cell line was transfected with the PiggyBac vector expressing H2B-SNAPf and the super PiggyBac transposase (2:1 ratio) as described previously51. […] TetO labeled ecDNA was similarly analyzed as described in previous DNA/RNA FISH section. […]

SMILES: Cc1sc2c(c1C)C(c1ccc(Cl)cc1)=N[C@@H](CC(=O)OC(C)(C)C)c1nnc(C)n1-2 [JQ1]
- reduction of MYC transcription probability per ecDNA copy [1]: four-fold
- spatial distribution of covalently-linked MYC copies [2]: did not alter
- ecDNA hub assembly following mitosis [3]: blocked
